Assay results taken from PMC6304418, “A Novel Compound Targeting Protease Receptor 1 Activators for the Treatment of Glioblastoma” (Frontiers in Neurology, 2018).
Where a SMILES comes first, the peptide text is derived from it. The star is where a group is joined. Tos = Cc1ccc(S(=O)(=O)*)cc1; CH2Cl = ClC*

Columns and labels:
[1] = SIXAC stability over time at 37°C, measured by its inhibition of thrombin; format: physicochemical; details: 400 μM SIXAC incubated and sampled, read-out inhibition of 0.05 U/ml thrombin
Procedure: Thrombin activity was assessed using a fluorogenic thrombin substrate (Bachem I-1560, excitation 360 nm; emission 465 nm). As previously described ([19], [36]), the reactions were carried out in a black 96-well microplate. All reactions were performed in Tris buffer (in mM: 150 NaCl, 1 CaCl2, 50 Tris-HCl: pH 8.0) and in the presence of endopeptidase inhibitors (0.1 mg/ml, bestatin hydrochloride—B8385, Sigma; 200 μM prolylendopeptidase inhibitor II, 537011, Merck Millipore) to eliminate the effect of widely abundant CNS endopeptidases on the assay. Known bovine thrombin concentrations (T-4648, Sigma) were used to create a calibration curve for each experiment. IC50 for inhibition of C6 glioma-generated thrombin activity by the molecules was measured in the medium secreted from the cells as described before ([19]). Briefly, C6 cells were seeded (5 × 10^4 cells/ml, 200 μl per well) and allowed to attach the well bottom for 24 h. […] The substrate was added and fluorescence was measured. […] Inhibition of commercial thrombin by SIXAC was measured by applying increasing concentrations of SIXAC (10^−12-10^−5M final concentration) to wells containing 0.05U/ml thrombin (final concentration). […] The sampled SIXAC was added to a constant concentration of thrombin (0.05 U/ml) and thrombin activity was measured. […] All other measures were calculated as a portion of the total activity.

[2] = tested on: CNS-1 tumors in rat brains; assay: Histopathology of CNS-1 GBM rat brains (H&E, Ki67); format: in vivo
Procedure: Rats were allocated to three groups. 1. Control group (n = 15) treated with alzet-pumps contain saline. 2. Moderate dose treated group (n = 16) treated with alzet-pump containing SIXAC (2μg/kg/day). 3. High dose treated group (n = 14) treated with alzet-pumps contain SIXAC (20μg/kg/day). Survival was registered daily and the brains were dissected immediately after death determination and were placed in 4% PFA and kept at 4°C. Upon MRI scanning the brains were moved to PBS containing tubes, scanning was performed and ROI were quantified.
Formalin-fixed, paraffin-embedded brains were serially sectioned into 4 μm sections and stained with Hematoxylin and Eosin (H&E). Tumor localization and detailed evaluation was conducted by a senior neuropathologist (NS). Mitosis rate was assessed manually by 2 observers who analyzed 10 fields from each examined brain. Serial 4 μm sections were used for immune-histochemical staining using a commercially available monoclonal rabbit anti-Ki67 antibody (clone SP6,# RM-9106-S, Thermo Scientific, 1:300) according to standard procedures and fully automated protocol. A positive control was added on the right side of the slides for immune-histochemistry. The slides were automatically scanned via Aperio Versa 200 System (leica) using X20 and X40 equivalent objectives. Digital images were captured with Leica DM6000B microscope by AperioImageScope software. The Ki67 index was defined as positive stained nuclei (DAB positive)/all stained nuclei. Ten fields from each tested brain were used for analysis of Ki67 index. The indices were automatically calculated by means of ImmunoRatio application (Version 1.0c) ([43]).

## Cc1ccc(S(=O)(=O)N[C@@H](C)C(=O)N[C@H](C(=O)N[C@@H](CC(C)C)C(=O)N[C@@H](CC(=O)O)C(=O)N2CCC[C@H]2C(=O)N[C@@H](CCCNC(=N)N)C(=O)CCl)[C@@H](C)O)cc1 [SIXAC] (Tos-ATLDPR-CH2Cl)
[1]
  stability: time for which SIXAC was stable and significantly inhibited thrombin: ≥ 18 days
[2]; SIXAC treated rats, 10 fields per brain, mean ± SEM, control 7.75 ± 1.45, p = 0.03
  mitosis rate (number of mitosis/field, H&E): 4.9 ± 0.2 mitosis/field
[2]; SIXAC treated rats, positive/all stained nuclei, ImmunoRatio, ten fields per brain, mean ± SEM, control 21.55 ± 0.11, p < 0.001
  Ki67 index: 12.74 ± 0.23
[2]; high dose 20μg/kg/day long survivor, sacrificed at day 40
  H&E finding in a long survivor rat: large cystic area containing residual tissue with foamy macrophages
